Laboratory results taken from US11479604B2, “Immunomodulatory peptides and methods for modulating the immune system in a subject” (Recepta Biopharma S.A., priority 2017, dated 2022).

Assays:
[1] = tested on: B16F10-Nex2 melanoma cells; assay: Prophylactic adoptive transfer of peptide-stimulated dendritic cells, metastatic melanoma; assay type: in vivo, syngeneic mice; settings: DCs incubated with 50 μg/ml peptide, with or without tumor cell lysate; s.c.; tumor challenge day 14, count day 29
Description: DCs were obtained from the bone marrow of 6 to 8-week-old C57Bl6 mice. Briefly, femora and tibiae from mice were removed and stripped of muscles and tendons; both bone ends were cut, and bone marrow was extracted by placing the bone pieces into 1-ml tips, which in turn were inserted into 15-ml tubes and centrifuged for 10 minutes at 1500 rpm. Cells were resuspended in DMEM and cell clusters were dissociated by repeated pipetting. The total bone marrow cells were cultured in 100-mm treated tissue culture dish in 10 ml of R10 medium (DMEM medium supplemented with 2 mM glutamine, 10,000 U/ml penicillin, 10 mg/ml streptomycin, 50 μM 2-mercaptoethanol, 1 mM sodium pyruvate, MEM-nonessential aminoacids, MEM Vitamin solution, 10% heat-inactivated fetal bovine serum and GM-CSF (20 ng/ml) and IL-4 (40 ng/ml). Fresh medium (3 ml) with GM-CSF (200 ng/ml) and IL-4 (400 ng/ml) was added every 3 days. On day 7, adherent cells, that were harvested using PBS 2 mM EDTA, together with the non-adherent cells were pooled and used as the starting cell source for the experiments. BMDC Protocol 2
DCs were inoculated s.c. in syngeneic mice. On day 14, mice were inoculated i.v. with melanoma tumor cells (5×10^5 cells) and on day 29, the lung melanotic nodules were counted.

[2] = tested on: splenocytes; assay: Splenocyte cytokine production in melanoma-bearing treated mice (ELISA); assay type: in vivo; settings: 300 μg i.p. 5 consecutive days
Description: Mice were challenged with 5×10^5 B16F10-Nex2 cells via the i.v. route. […] Peptides at 300 μg solubilized in 10 μl distilled H2O and 90 μl of PBS were injected via i.p. route per animal, for 5 consecutive days initiating one day after tumor cell challenge. Seventeen days after tumor challenge mice were sacrificed and spleens were removed. Splenocytes after incubation in hemolysis buffer were suspended in R10 medium and plated in 6-well plates and 10^6 cells/well. Cells were incubated for 72 h with or without tumor cell lysate (from 10^5 B16F10-Nex2 cells) in triplicate. The supernatants were collected, and cytokines measured by ELISA (FIG. 11).

[3] = tested on: human mo-DC from healthy donors; assay: mo-DC generated under tolerogenic, TNF-alpha or LPS conditions, flow cytometry; assay type: cell-based
Description: To further evaluate and confirm this property, mo-DC were generated from healthy donors cells in three different conditions, all in the presence of GM-CSF (50 ng/mL) and IL-4 (50 ng/mL). To one group of cells at day 5, TGF-beta ([…]) and IL-10 (1 ug/mL) were added; to a second group, at day 5, TNF-alpha was added and to a third group, LPS (100 ng/mL) was added at day 6. The first condition is known to induce phenotypic changes in mo-DC consistent with a tolerogenic activity of the cells, while both other conditions generate mature mo-DC, with LPS representing a stronger maturation stimulus than TNF-alpha. […] At day 7 all cells were harvested and analyzed by flow cytometry.

[4] = tested on: B16F10-Nex2 tumor cells; assay: Metastatic melanoma model in immunodeficient mice; assay type: in vivo, NOD/Scid/IL-2R-gamma^null mice; settings: 250 μg i.p. on days 1-11, lungs on day 22
Description: B16F10-Nex2 tumor cells (2×10^5) in RPMI (100 μl) were injected in both animal groups in the tail veins on day 0. Animals were sacrificed on day 22, or 10 days after the last administration of the peptide, and their lungs were examined for dark melanotic nodules.

[5] = tested on: human mo-DC co-cultured with allogeneic lymphocytes; assay: Allogeneic lymphocyte proliferation induced by mo-DC of healthy donors (CFSE); assay type: cell-based; settings: TNF, tumor lysate and peptide; mo-DC:lymphocyte 1:30
Description: Mo-DC were co-cultured with allogeneic lymphocytes (DC:Ly=1:30) to evaluate their ability to induce lymphocyte proliferation. This was measured by carboxyfluorescein succinimidyl ester (CFSE—Molecular Probes) dilution and activation measured by correlation among CD4/CD25 and Foxp3 expression (Clavijo-Salomon et al., 2016).
After two days in co-culture, the dilution of CFSE in lymphocytes was evaluated as a measurement of lymphocyte proliferation.

[6] = tested on: pancreas carcinoma Panc02; assay: Subcutaneous syngeneic pancreatic carcinoma model; assay type: in vivo, C57BL6 mice; settings: 300 μg i.p., 5 doses every other day
Description: Male C57BL/6 mice, 6 to 8-week-old were obtained from the Center for Development of Experimental Models (CEDEME), Federal University of Sao Paulo (UNIFESP). For the in vivo metastatic model, C57BL/6 mice received one intravenous (i.v.) injection of 2×10^5 viable B16-F10-Next melanoma cells in 100 μL. […] The control group received 100 μL PBS. Twenty-two days later, mice (minimum n=3 per group) had their lungs harvested, and the number of macroscopic melanotic nodules were counted. The Ethical Committee of Federal University of São Paulo, Project no. 1234, 2011, approved all experiments with animals, according to International guidelines. For the subcutaneous model, mice were injected with 5×10^5 tumor cells suspended in 100 μL of PBS in the right flank via the subcutaneous route. The peptide (300 μg) was solubilized in 10 μL of distilled H2O and 90 μL of PBS and injected per mouse via the intraperitoneal route. The administration of the peptide was performed in 5 alternate days initiating one day after tumor challenge. Tumor longitudinal diameter (D) and transverse diameter (d) were measured every 2 days until the tumor volume reached 3,000 mm3. Animals were sacrificed when the allowed volume was reached. Volume was calculated using the formula v=Dd^2×0.52. […]

[7] = tolerogenic conditions (TGF-beta+IL-10)

For [CARGETARATFAYWGQGC], NH2 (C-C) [Rb9], the “protective effect of peptide-stimulated DCs (lung melanotic nodules)” value [1] was “remarkable protective effect”, the “IL-12 production in splenocytes” value ([2]; no stimulus necessary) was “comparable in the three groups” and the “IFN-gamma production in splenocytes” value ([2]; splenocytes with tumor cell lysate 72 h, relative to untreated control) was “increased”. The “IL-10 production in splenocytes” value ([2]; with tumor cell lysate) was “no effect”, the “TNF-alpha production in splenocytes” value ([2]; with tumor cell lysate) was “no effect” and the “IL-6 production in splenocytes” value ([2]; with tumor cell lysate, relative to untreated control) was “decreased”. The “number of CD11c+HLA-DR+ cells” value ([3]; LPS-treated cells) was “decreased the number of cells”, the “percentage of CD11c+HLA-DR+ cells” value ([3]; TGF-beta+IL-10 group) was “increased the percentage of cells” and the “percentage of CD11c+HLA-DR+ cells” value ([3]; TNF group) was “little effect”. The “co-stimulatory potential (CD80 and CD86 double-positive cells)” value (“co-stimulatory potential” below) ([3]; mild stimulus (TNF-alpha)) was “partially inhibitory”, the “maturation of mo-DC (HLA-DR+CD83+)” value ([3]; mild stimulus (TNF-alpha)) was “enhanced their maturation” and the “co-stimulatory potential” value ([3]; strongly stimulated by LPS) was “clearly inhibitory”. For the same substance, the “maturation of mo-DC (HLA-DR+CD83+)” value ([3]; strongly stimulated by LPS) was “inhibitory”, the “co-stimulatory potential” value [3, 7] was “increased their co-stimulatory potential” and the “maturation of mo-DC (HLA-DR+CD83+)” value [3, 7] was “increased the maturation”. For the same substance, the “protection against lung nodules” value [4] was “No protection”, the “lympho-stimulatory ability of mo-DC” value [5] was “further enhance the lympho-stimulatory ability” and the “deaths up to the 40th day” value [6] was “no deaths were recorded”. For the same substance, the s.c. tumor growth [6] was “significantly delayed”.
